Where a name gives a salt, the structure may show the parent alone.
target: T1, recombinant human GSK3β (Homo sapiens, UniProt P49841); experiment: GSK3β Scintillation Proximity Assay (ATP competition); format: biochemical; settings: inhibition constants calculated with Km of ATP for GSK3β of 20 μM; 1 μM ATP, 1 μM biotinylated peptide substrate
T1 construct: purchased Dundee University, UK
Experimental: Determination of ATP Competition in Scintillation Proximity GSK3β Assay.
GSK3β Scintillation Proximity Assay.
The competition experiments were carried out in duplicate with 10 different concentrations of the inhibitors in clear-bottom microtiter plates (Wallac, Finland). A biotinylated peptide substrate, Biotin-Ala-Ala-Glu-Glu-Leu-Asp-Ser-Arg-Ala-Gly-Ser(PO3H2)-Pro-Gln-Leu (AstraZeneca, Lund), was added at a final concentration of 1 μM in an assay buffer containing 1 mU recombinant human GSK3β (Dundee University, UK), 12 mM morpholinepropanesulfonic acid (MOPS), pH 7.0, 0.3 mM EDTA, 0.01% β-mercaptoethanol, 0.004% Brij 35 (a […] detergent), 0.5% glycerol and 0.5 μg BSA/25 μl. The reaction was initiated by the addition of 0.04 μCi [γ-^33P]ATP (Amersham, UK) and unlabelled ATP at a final concentration of 1 μM and assay volume of 25 μl. After incubation for 20 minutes at room temperature, each reaction was terminated by the addition of 25 μl stop solution containing 5 mM EDTA, 50 μM ATP, 0.1% Triton X-100 and 0.25 mg streptavidin coated Scintillation Proximity Assay (SPA) beads (Amersham, UK). After 6 hours the radioactivity was determined in a liquid scintillation counter (1450 MicroBeta Trilux, Wallac). The inhibition curves were analysed by non-linear regression using GraphPad Prism, USA. The Km value of ATP for GSK3β, used to calculate the inhibition constants (Ki) of the various compounds, was 20 μM.

T1 sequence (P49841 whole entry): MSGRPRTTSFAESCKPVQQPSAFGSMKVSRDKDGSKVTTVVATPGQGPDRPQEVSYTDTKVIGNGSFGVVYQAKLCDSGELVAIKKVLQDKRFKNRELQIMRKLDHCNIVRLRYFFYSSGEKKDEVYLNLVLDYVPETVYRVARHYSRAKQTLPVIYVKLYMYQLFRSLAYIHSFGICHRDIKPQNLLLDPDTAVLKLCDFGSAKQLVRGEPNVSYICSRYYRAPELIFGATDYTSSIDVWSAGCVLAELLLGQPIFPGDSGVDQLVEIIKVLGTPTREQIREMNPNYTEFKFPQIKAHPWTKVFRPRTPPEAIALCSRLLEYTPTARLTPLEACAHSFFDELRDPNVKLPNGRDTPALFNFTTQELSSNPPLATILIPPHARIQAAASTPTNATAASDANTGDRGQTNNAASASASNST

SMILES	Ki
CCN(CC)C(=O)c1ccc(Nc2ncc(F)c(-c3cnc(C)n3C3CCOCC3)n2)cn1 [Example 38, N,N-Diethyl-5-[[5-fluoro-4-[2-methyl-3-(oxan-4-yl)imidazol-4-yl]pyrimidin-2-yl]amino]pyridine-2-carboxamide]	29 nM
Cc1ncc(-c2nc(Nc3ccc(C(=O)N(Cc4ccccc4)C(C)C)nc3)ncc2F)n1C1CCOCC1 [Example 30, N-Benzyl-5-[[5-fluoro-4-[2-methyl-3-(oxan-4-yl)imidazol-4-yl]pyrimidin-2-yl]amino]-N-propan-2-yl-pyridine-2-carboxamide]	17 nM
Cc1ncc(-c2nc(Nc3ccc(C(=O)N4CCN(C)CC4)cn3)ncc2F)n1C1CCOCC1 [Example 3, 5-Fluoro-N-{5-[(4-methylpiperazin-1-yl)carbonyl]pyridin-2-yl}-4-[2-methyl-1-(tetrahydro-2H-pyran-4-yl)-1H-imidazol-5-yl]pyrimidin-2-amine]	661 nM
Cc1ncc(-c2nc(Nc3cnc(C(=O)N4CCCCC4)c(Cl)c3)ncc2F)n1C [Example 55, N-[5-Chloro-6-(piperidin-1-ylcarbonyl)pyridin-3-yl]-4-(1,2-dimethyl-1H-imidazol-5-yl)-5-fluoropyrimidin-2-amine hydrochloride]	18 nM
CCN(C)C(=O)c1ccc(Nc2ncc(F)c(-c3cnc(C)n3C3CCOCC3)n2)cn1 [Example 26, N-Ethyl-5-[[5-fluoro-4-[2-methyl-3-(oxan-4-yl)imidazol-4-yl]pyrimidin-2-yl]amino]-N-methyl-pyridine-2-carboxamide]	31 nM
CCS(=O)(=O)c1ccc(Nc2ncc(F)c(-c3cnc(C)n3C3CCOCC3)n2)cn1 [Example 51, (6-Ethanesulfonyl-pyridin-3-yl)-{5-fluoro-4-[2-methyl-3-(tetrahydro-pyran-4-yl)-3H-imidazol-4-yl]-pyrimidin-2-yl}-amine]	21 nM
Cc1ncc(-c2nc(Nc3ccc(C(=O)N4CCC(C)CC4)nc3)ncc2F)n1C1CCOCC1 [Example 27, [5-[[5-Fluoro-4-[2-methyl-3-(oxan-4-yl)imidazol-4-yl]pyrimidin-2-yl]amino]pyridin-2-yl]-(4-methyl-1-piperidyl)methanone]	28 nM
CCN1CCN(C(=O)c2ccc(Nc3ncc(F)c(-c4cnc(C)n4C4CCOCC4)n3)cn2)CC1 [Example 17, (4-Ethylpiperazin-1-yl)-[5-[[5-fluoro-4-[2-methyl-3-(oxan-4-yl)imidazol-4-yl]pyrimidin-2-yl]amino]pyridin-2-yl]methanone]	50 nM
CN1CCN(C(=O)c2ncc(Nc3ncc(F)c(-c4cnc(C(F)(F)F)n4C)n3)cc2Cl)CC1 [Example 44, [3-Chloro-5-[[5-fluoro-4-[3-methyl-2-(trifluoromethyl)imidazol-4-yl]pyrimidin-2-yl]amino]pyridin-2-yl]-(4-methylpiperazin-1-yl)methanone]	55 nM
Cc1ncc(-c2nc(Nc3cnc(C(=O)N4CCC4)c(Cl)c3)ncc2F)n1C1CCOCC1 [Example 42, Azetidin-1-yl-[3-chloro-5-[[5-fluoro-4-[2-methyl-3-(oxan-4-yl)imidazol-4-yl]pyrimidin-2-yl]amino]pyridin-2-yl]methanone]	11 nM
Cc1ncc(-c2nc(Nc3ccc(S(=O)(=O)N(C)C)nc3)ncc2F)n1C1CCOCC1 [Example 53]	20 nM
Cc1ncc(-c2nc(Nc3ccc(C(=O)N4CCC(c5ccc(F)cc5)CC4)nc3)ncc2F)n1C1CCOCC1 [Example 16, [5-[[5-Fluoro-4-[2-methyl-3-(oxan-4-yl)imidazol-4-yl]pyrimidin-2-yl]amino]pyridin-2-yl]-[4-(4-fluorophenyl)-1-piperidyl]methanone]	9 nM
Cc1ncc(-c2nc(Nc3ccc(C(=O)N4C(C)CCCC4C)nc3)ncc2F)n1C1CCOCC1 (stereo not drawn) [Example 23, (2,6-Dimethyl-1-piperidyl)-[5-[[5-fluoro-4-[2-methyl-3-(oxan-4-yl)imidazol-4-yl]pyrimidin-2-yl]amino]pyridin-2-yl]methanone]	41 nM
Cc1ncc(-c2nc(Nc3ccc(C(=O)N4CCN(C)CC4)nc3)ncc2F)n1C [Example 47, 4-(1,2-Dimethyl-1H-imidazol-5-yl)-5-fluoro-N-{6-[(4-methylpiperazin-1-yl)carbonyl]pyridin-3-yl}pyrimidin-2-amine]	100 nM
Cc1ncc(-c2nc(Nc3ccc(C(=O)N4CCC(F)CC4)nc3)ncc2F)n1C1CCOCC1 [Example 32, [5-[[5-Fluoro-4-[2-methyl-3-(oxan-4-yl)imidazol-4-yl]pyrimidin-2-yl]amino]pyridin-2-yl]-(4-fluoro-1-piperidyl)methanone]	33 nM
Cc1ncc(-c2nc(Nc3ccc(C(=O)N4CCC(F)(F)C4)nc3)ncc2F)n1C1CCOCC1 [Example 13, (3,3-Difluoropyrrolidin-1-yl)-[5-[[5-fluoro-4-[2-methyl-3-(oxan-4-yl)imidazol-4-yl]pyrimidin-2-yl]amino]pyridin-2-yl]methanone]	34 nM
Cc1ncc(-c2nc(Nc3ccc(C(=O)N(C)CC(C)C)nc3)ncc2F)n1C1CCOCC1 [Example 31, 5-[[5-Fluoro-4-[2-methyl-3-(oxan-4-yl)imidazol-4-yl]pyrimidin-2-yl]amino]-N-methyl-N-(2-methylpropyl)pyridine-2-carboxamide]	12 nM
Cc1ncc(-c2nc(Nc3ccc(S(C)(=O)=O)nc3)ncc2F)n1C1CCOCC1 [Example 2, 5-Fluoro-N-[6-(methylsulfonyl)pyridin-3-yl]-4-[2-methyl-1-(tetrahydro-2H-pyran-4-yl)-1H-imidazol-5-yl]pyrimidin-2-amine]	40 nM
Cc1ncc(-c2nc(Nc3ccc(C(=O)N4CCCCC4)nc3)ncc2F)n1C1CCOCC1 [Example 20, [5-[[5-Fluoro-4-[2-methyl-3-(oxan-4-yl)imidazol-4-yl]pyrimidin-2-yl]amino]pyridin-2-yl]-(1-piperidyl)methanone]	26 nM
CCOc1ccc(Nc2ncc(F)c(-c3cnc(C)n3C3CCOCC3)n2)cn1 [Example 10, (6-Ethoxy-pyridin-3-yl)-{5-fluoro-4-[2-methyl-3-(tetrahydro-pyran-4-yl)-3H-imidazol-4-yl]-pyrimidin-2-yl}-amine]	45 nM
Cc1ncc(-c2nc(Nc3ccc(C(=O)N4CCN(C)CC4)nc3)ncc2F)n1C1CCOCC1 [Example 4, 5-Fluoro-N-{6-[(4-methylpiperazin-1-yl)carbonyl]pyridin-3-yl}-4-[2-methyl-1-(tetrahydro-2H-pyran-4-yl)-1H-imidazol-5-yl]pyrimidin-2-amine]	63 nM
CCN(C(=O)c1ccc(Nc2ncc(F)c(-c3cnc(C)n3C3CCOCC3)n2)cn1)C(C)C [Example 19, N-Ethyl-5-[[5-fluoro-4-[2-methyl-3-(oxan-4-yl)imidazol-4-yl]pyrimidin-2-yl]amino]-N-propan-2-yl-pyridine-2-carboxamide]	25 nM
O=C(c1ncc(Nc2ncc(F)c(-c3cnc(C(F)(F)F)n3C3CCOCC3)n2)cc1Cl)N1CCCCC1 [Example 57, N-[5-Chloro-6-(piperidin-1-ylcarbonyl)pyridin-3-yl]-5-fluoro-4-[1-(tetrahydro-2H-pyran-4-yl)-2-(trifluoromethyl)-1H-imidazol-5-yl]pyrimidin-2-amine hydrochloride]	19 nM
Cc1ncc(-c2nc(Nc3cnc(C(=O)N4CCC4)c(Cl)c3)ncc2F)n1C [Example 48, N-[6-(Azetidin-1-ylcarbonyl)-5-chloropyridin-3-yl]-4-(1,2-dimethyl-1H-imidazol-5-yl)-5-fluoropyrimidin-2-amine]	16 nM
